Results taken from patent publication US20060069132A1, “Azolecarboxamide herbicides” (priority 2004, published 2006).
Read-outs that look alike come from different tables or passages of the source.

How the values were obtained:
morningglory = assay: Test A pre-/postemergence herbicide test; type: in vivo, Ipomoea spp.; settings: for pest or weed control at 125 g/ha / pest or weed control at 500 g/ha: Ipomoea, 240 h, read-out: Morningglory plant response rating; for pest or weed control at 125 g/ha: 125 g ai/ha
Procedure, shortened: (§1)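 Plants are held in greenhouse about ten days after treatment, then compared with untreated controls and scored 0 (no effect) to 100 (complete control). Preemergence dosing is a directed soil spray on sown sandy loam; postemergence dosing is spray to runoff at 2–10 cm height.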

ducksalad = assay: Test C flooded paddy test; type: in vivo, Heteranthera limosa
redroot pigweed = assay: Test A pre-/postemergence herbicide test; type: in vivo, Amaranthus retroflexus; settings: for pest or weed control at 125 g/ha / pest or weed control at 500 g/ha: Amaranthus retroflexus, 240 h, read-out: Pigweed plant response rating; for pest or weed control at 125 g/ha: 125 g ai/ha
Procedure, shortened: as §1

barnyardgrass = assay: Test A pre-/postemergence herbicide test; type: in vivo, Echinochloa crus-galli; settings: for pest or weed control at 125 g/ha / pest or weed control at 500 g/ha: Echinochloa crus-galli, 240 h, read-out: Barnyardgrass plant response rating; for pest or weed control at 125 g/ha: 125 g ai/ha
Procedure, shortened: as §1

velvetleaf = assay: Test C pre-/postemergence herbicide test; type: in vivo, Abutilon theophrasti; settings: preemergence; for Plant response rating (0 = no effect, 100 = complete control), Velvetleaf: 125 g ai/ha
From the text: (§2) Seeds of plant species selected from bermudagrass (Cynodon dactylon (L.) Pers.), Surinam grass (Urochloa decumbens (Staph) R. D. Webster, previously named Brachiaria decumbens Stapf), cocklebur (Xanthium strumarium L.), corn (Zea mays L.), large crabgrass (Digitaria sanguinalis (L.) Scop.), woolly cupgrass (Eriochloa villosa (Thunb.) Kunth), giant foxtail (Setaria faberi Herrm.), goosegrass (Eleusine indica (L.) Gaertn.), johnsongrass (Sorghum halepense (L.) Pers.), kochia (Kochia scoparia (L.) Schrad.), lambsquarters (Chenopodium album L.), morningglory (Ipomoea coccinea L.), eastern black nightshade (Solanum ptycanthum Dunal), yellow nutsedge (Cyperus esculentus L.), pigweed (Amaranthus retroflexus L.), common ragweed (Ambrosia elatior L.), soybean (Glycine max (L.) Merr.), common (oilseed) sunflower (Helianthus annuus L.) and velvetleaf (Abutilon theophrasti Medik.) were planted and treated preemergence with test chemicals formulated in a non-phytotoxic solvent mixture which included a surfactant.
(§3) At the same time, plants selected from these crop and weed species and also winter barley (Hordeum vulgare L.), blackgrass (Alopecurus myosuroides Huds.), canarygrass (Phalaris minor Retz.), chickweed (Stellaria media (L.) Vill.), downy bromegrass (Bromus tectorum L.), green foxtail (Setaria viridis (L.) Beauv.), Italian ryegrass (Lolium multiflorum Lam.), wheat (Triticum aestivum L.), wild oat (Avenafatua L.) and windgrass (Apera spica-venti (L.) Beauv.) were treated with postemergence applications of some of the test chemicals formulated in the same manner. Plants ranged in height from 2 to 18 cm (1- to 4-leaf stage) for postemergence treatments. Plant species in the flooded paddy test consisted of rice (Oryza sativa), smallflower umbrella sedge (Cyperus difformis L.), ducksalad (Heteranthera limosa (Sw.) Willd.) and barnyardgrass (Echinochloa crus-galli (L.) Beauv.) grown to the 2-leaf stage for testing. Treated plants and controls were maintained in a greenhouse for 12 to 14 days, after which time all species were compared to controls and visually evaluated. Plant response ratings, summarized in Table C, are based on a scale of 0 to 100 where 0 is no effect and 100 is complete control. A dash (-) response means no test result.

large crabgrass = assay: Test C pre-/postemergence herbicide test; type: in vivo, Digitaria sanguinalis; settings: preemergence; for Plant response rating (0 = no effect, 100 = complete control), Crabgrass, Large: 125 g ai/ha
From the text: as §2, §3

bermudagrass = assay: Test C pre-/postemergence herbicide test; type: in vivo, Cynodon dactylon; settings: for Plant response rating (0 = no effect, 100 = complete control), Bermudagrass: 125 g ai/ha
From the text: as §2, §3

[1] = Postemergence, 500 g ai/ha, 0 to 100 scale, 0 no effect, 100 complete control
[2] = Postemergence, 2000 g ai/ha, 0 to 100 scale, 0 no effect, 100 complete control
[3] = Preemergence, 500 g ai/ha, visual rating, 0 to 100 scale (0 no effect, 100 complete control)
[4] = Preemergence, 2000 g ai/ha, visual rating, 0 to 100 scale (0 no effect, 100 complete control)
[5] = 125 g ai/ha, scale 0 to 100 (0 no effect, 100 complete control)
[6] = 250 g ai/ha, scale of 0 to 100, 0 is no effect, 100 is complete control
[7] = 500 g ai/ha, visual rating after 12 to 14 days, scale 0 to 100 (0 no effect, 100 complete control)
[8] = preemergence, 500 g ai/ha, visual injury, 0 to 100 scale (0 no effect, 100 complete control)
[9] = 62 g ai/ha, preemergence, scale 0 to 100, 0 no effect, 100 complete control
[10] = 250 g ai/ha, scale 0-100, preemergence
[11] = 500 g ai/ha, scale 0 to 100 (0 no effect, 100 complete control), visual, 12 to 14 days
[12] = post-emergence, Postemergence, 0 to 100 scale, 0 no effect, 100 complete control
[13] = post-emergence, Postemergence, 500 g ai/ha, 0 to 100 scale, 0 no effect, 100 complete control
[14] = pre-emergence, preemergence, visual injury, 0 to 100 scale (0 no effect, 100 complete control)
[15] = pre-emergence, preemergence, 500 g ai/ha, visual injury, 0 to 100 scale (0 no effect, 100 complete control)

Structure (SMILES) | Morningglory plant response rating (morningglory; [1]) | Plant response rating, Morningglory (morningglory; [2]) | Morningglory plant response rating (morningglory; [4]) | Ducksalad plant response rating (ducksalad; [5]) | Ducksalad plant response rating (ducksalad; [6]) | Plant response rating, Ducksalad (ducksalad; [7]) | Pigweed plant response rating (redroot pigweed; [1]) | Plant response rating, Pigweed (redroot pigweed; [2]) | Pigweed plant response rating (redroot pigweed; [4]) | Pigweed plant response rating (redroot pigweed; [8]) | Barnyardgrass plant response rating (barnyardgrass; [1]) | Plant response rating, Barnyardgrass (barnyardgrass; [2]) | Barnyardgrass plant response rating (barnyardgrass; [4]) | Ducksalad plant response rating (ducksalad; 62 g ai/ha, scale 0 to 100) | other results
C=Cn1nc(C(C)(C)C)cc1C(=O)Nc1cccc(C(C)=O)c1 [Compound 127] | 10 | 20 | 30 | 15 | 20 | 80 | 40 | 50 | 50 | 40 | 30 | 50 | 30 | – | Morningglory plant response rating (morningglory; [3]): 30; Ducksalad plant response rating (ducksalad; 62 g ai/ha, scale 0 to 100 (0 no effect, 100 complete control)): 0; Barnyardgrass plant response rating (barnyardgrass; [3]): 20
CCn1nc(C(C)(C)C)c(F)c1C(=O)Nc1cc(C(=O)N(C)C)ccc1F [Compound 276, N-[5-[(dimethylamino)carbonyl]-2-fluorophenyl]-3-(1,1-dimethylethyl)-1-ethyl-4-fluoro-1H-pyrazole-5-carboxamide] | – | – | – | – | – | – | – | – | – | – | – | – | – | – | pest or weed control at 62 g/ha (ducksalad; Heteranthera limosa, 62 g ai/ha, scale 0 to 100, read-out: Ducksalad plant response rating): 0%; pest or weed control at 125 g/ha (ducksalad; Heteranthera limosa, 125 g ai/ha, scale 0 to 100 (0 no effect, 100 complete control), read-out: Ducksalad plant response rating): 20%; pest or weed control at 250 g/ha (ducksalad; Heteranthera limosa, 250 g ai/ha, scale of 0 to 100, 0 is no effect, 100 is complete control, read-out: Ducksalad plant response rating): 70%; pest or weed control at 500 g/ha (ducksalad; Heteranthera limosa, 500 g ai/ha, visual rating after 12 to 14 days, scale 0 to 100 (0 no effect, 100 complete control), read-out: Plant response rating, Ducksalad): 85%
C=CCN(C)C(=O)c1cccc(NC(=O)c2cc(C(C)(C)C)nn2CC)c1 [Compound 285] | 40 | 50 | 45 | 80 | 90 | 90 | 80 | 100 | 100 | 100 | 55 | 80 | 90 | 45 | Morningglory plant response rating (morningglory; [8]): 25; Barnyardgrass plant response rating (barnyardgrass; [8]): 70
CCOC(=O)c1cccc(NC(=O)c2cc(C(C)(C)C)nn2C)n1 [Compound 313] | 30 | 55 | 55 | 30 | – | – | 100 | 100 | 100 | 95 | 80 | 95 | 90 | 0 | Morningglory plant response rating (morningglory; [8]): 20; Ducksalad plant response rating (ducksalad; 16 g ai/ha, scale 0 to 100): 0; Ducksalad plant response rating (ducksalad; 31 g ai/ha, scale 0 to 100): 0; Barnyardgrass plant response rating (barnyardgrass; [8]): 80
CCNC(=O)c1ccc(F)c(NC(=O)c2c3c(nn2CC)C(C)(C)CC3)c1 [Compound 353] | – | – | – | 0 | 30 | 30 | – | – | – | – | – | – | – | 0 | –
CCc1nn(C(C)(C)C)nc1C(=O)Nc1cccc(C(=O)N(C)CC)c1 [Compound 384] | – | – | – | 80 | 80 | 85 | – | – | – | – | – | – | – | 80 | Plant response rating, Velvetleaf (velvetleaf; 62 g ai/ha, scale 0 to 100): 100; Plant response rating (0 = no effect, 100 = complete control), Velvetleaf (velvetleaf): 100; Plant response rating, Velvetleaf (velvetleaf; 250 g ai/ha, scale 0-100): 100; Plant response rating, Crabgrass, Large (large crabgrass; 62 g ai/ha, scale 0 to 100): 100; Plant response rating (0 = no effect, 100 = complete control), Crabgrass, Large (large crabgrass): 100; Plant response rating, Crabgrass, Large (large crabgrass; 250 g ai/ha, scale 0-100): 100; Plant response rating, Bermudagrass (bermudagrass; 31 g ai/ha, scale 0 to 100, 0 no effect, 100 complete control, last section of Table C (species set of preemergence test)): 65; Plant response rating, Bermudagrass (bermudagrass; [9]): 100; Plant response rating (0 = no effect, 100 = complete control), Bermudagrass (bermudagrass; preemergence): 100; Plant response rating, Bermudagrass (bermudagrass; [10]): 100
Cc1nn(C(C)(C)C)nc1C(=O)Nc1cccc(C(=O)N2CC=CC2)c1 [Compound 393] | – | – | – | 75 | 80 | 90 | – | – | – | – | – | – | – | 75 | Plant response rating, Velvetleaf (velvetleaf; 62 g ai/ha, scale 0 to 100): 65; Plant response rating (0 = no effect, 100 = complete control), Velvetleaf (velvetleaf): 100; Plant response rating, Velvetleaf (velvetleaf; 250 g ai/ha, scale 0-100): 100; Plant response rating, Velvetleaf (velvetleaf; [11]): 100; Plant response rating, Crabgrass, Large (large crabgrass; 62 g ai/ha, scale 0 to 100): 95; Plant response rating (0 = no effect, 100 = complete control), Crabgrass, Large (large crabgrass): 100; Plant response rating, Crabgrass, Large (large crabgrass; 250 g ai/ha, scale 0-100): 100; Plant response rating, Crabgrass, Large (large crabgrass; [11]): 100; Plant response rating, Bermudagrass (bermudagrass; [9]): 60; Plant response rating (0 = no effect, 100 = complete control), Bermudagrass (bermudagrass; preemergence): 100; Plant response rating, Bermudagrass (bermudagrass; [10]): 100; Plant response rating, Bermudagrass (bermudagrass; 500 g ai/ha, scale 0 to 100 (0 no effect, 100 complete control), visual, 12 to 14 days, preemergence): 100
CCNC(=O)c1cccc(NC(=O)c2nc(C(C)(C)C)nn2CC)c1 [Compound 446, 3-(1,1-dimethylethyl)-1-ethyl-N-[3-[(ethylamino)carbonyl]phenyl]-1H-1,2,4-triazole-5-carboxamide] | – | – | – | – | – | – | – | – | – | – | – | – | – | – | pest or weed control at 125 g/ha (morningglory; [12]): 10%; pest or weed control at 500 g/ha (morningglory; [13]): 40%; pest or weed control at 125 g/ha (morningglory; [14]): 10%; pest or weed control at 500 g/ha (morningglory; [15]): 15%; pest or weed control at 125 g/ha (redroot pigweed; [12]): 65%; pest or weed control at 500 g/ha (redroot pigweed; [13]): 80%; pest or weed control at 125 g/ha (redroot pigweed; [14]): 90%; pest or weed control at 500 g/ha (redroot pigweed; [15]): 100%; pest or weed control at 125 g/ha (barnyardgrass; [12]): 80%; pest or weed control at 500 g/ha (barnyardgrass; [13]): 90%; pest or weed control at 125 g/ha (barnyardgrass; [14]): 55%; pest or weed control at 500 g/ha (barnyardgrass; [15]): 85%
